Measurements: patent US20240148745A1, “COMPOUNDS FOR USE IN PROGRESSIVE MULTIPLE SCLEROSIS” (FONDAZIONE CENTRO SAN RAFFAELE, priority 2021, published 2024)

Assays:
[1] = system: rat oligodendrocyte progenitor CG4 line; experiment: Differentiation assay on rat oligodendrocyte progenitor CG4 line (HCS, mCherry+); format: cell-based; details: secondary screen of 49 selected compounds, 1 μM, 5 days
Excerpt: Primary validation on CG4 line toxicity and differentiation. An innovative OPC line was developed for fast and reliable high content screening (HCS) of small compounds inducing oligodendrocyte differentiation. The line was genetically engineered by lentiviral transduction of rat CG4 cells (PubMed=1613821; DOI=10.1002/jnr.490310125; Louis J. C., Magal E., Muir D., Manthorpe M., Varon S.; CG-4, a new bipotential glial cell line from rat brain, is capable of differentiating in vitro into either mature oligodendrocytes or type-2 astrocytes. J. Neurosci. Res. 31:193-204(1992) to express mCherry fluorescent reporter (Evercooren, Anne & Avellana-Adalid, V. & Vitry, Sandrine & Nait-Oumesmar, Brahim & Lachapelle, Francois. (1997). Expansion of Oligodendrocyte Progenitors for Myelin Repair. 10.1007/978-1-4615-5949-8_21) in mature oligodendrocytes only, and EGFP at all stage of the oligodendroglial lineage: both the generation of mature oligodendrocytes (wmNl-mCherry) and the morphological changes associated with differentiation (CMV-EGFP) can be therefore monitored in a single assay. mCherry expression occurred only in O4+/GalC+ differentiated oligodendrocytes and GFP was ubiquitously expressed at all developmental stages. The line so obtained was validated using compounds with well-established effects on oligodendrocyte differentiation (cAMP and T3). Cell-based assay was standardized on the HCS platform (ArrayScanXTI, Brain and Spine Institute (Paris), validating the pro-differentiation effects of clemastine^27 and 9cis-retinoic acid.^28 For HCS validation of 274 compounds identified through in silico screen, double-fluo CG4 line cells were plated in 96 well-plates, 6500 cells/cm^2 and left for 24 h in proliferation. The other day, compounds were added (1 μM) for next 5 days of differentiation, with ⅔ medium changed after 3 days. 9-cis Retinoic Acid (9cis-RA; […]) served as a positive control, negative controls were basal (N1) medium and vehicle (basal+0.1% DMSO). Each compound was tested in triplicate and were imaged with ArrayScanXTI system (35 fields/well) after 5 days of differentiation.
FIG. 4 provides a schematic representation of High Content Screening (HCS) validation of the 274 compounds identified through in silico screening using CG4 line. […] In addition, the whole short list of 160 non-toxic compounds were screened using the CG4 high content phenotypic assay to further confirm the data from primary screening and to potentially select additional compounds with pro-myelinating activities. From this screening of the short list, 49 hit compounds were identified that increase differentiation either of CG4 cells or primary OPCs (FIG. 6).

[2] = system: human iPS-derived neuroprecursors; experiment: Differentiation of human iPS-derived neuroprecursors into MBP+ oligodendrocytes; format: cell-based; details: 1 μM in minimal medium, p<0.05
Excerpt: NPC bearing a doxycycline inducible polycistronic construct containing SOX10, OLIG2 and NKX6.2^29 in a human safe harbor (passages 10 to 25) were singularized on day −3 by treatment with Accutase and plated on Matrigel-coated 12-well plates at a density of 100.000 cells per well in N2B27-medium containing equal parts of neurobasal (Invitrogen) and DMEM-F12 medium (Invitrogen) with 1:100 B27 supplement lacking vitamin A (Invitrogen), 1:200 N2 supplement (Invitrogen), 1% penicillin/streptomycin/glutamine (PSG), 3 μM CHIR99021 (Axon Medchem), 150 μM ascorbic acid and 0.5 μM SAG. The next day medium was changed to N2B27-medium containing 1 μg/ml doxycycline. On DO medium was changed to glial-induction medium (GIM) consisting of DMEM-F12 with 1:100 B27 supplement lacking vitamin A, 1:200 N2 supplement, 1% PSG, 1 μM SAG, 10 ng/mL NT3 (Peprotech), 10 ng/mL IGF-I (Peprotech), 200 μM AA (Sigma), 1:1000 Trace Elements B (Corning). For full medium conditions 10 ng/ml T3 was added. On Day 2 medium was changed to glial-differentiation medium (GDM) comprising DMEM-F12 with 1:100 B27 supplement lacking vitamin A, 1:200 N2 supplement, 1% PSG, 100 μM dbCAMP (Sigma), 100 μM AA, 1:1000. For full medium conditions 60 ng/mL T3, Trace Elements B 10 ng/mL, IGF-I, 10 ng/mL and NT3 were added to the culture. GDM was changed every other day. On day 7 cells were detached by treatment with Accutase and re-plated on laminin coated 48-well plates at densities of 10.000-12.000 cells per well. After 24 h cells were treated in minimal medium with either vehicle alone [0.01% (vol/vol) DMSO] as a negative control, 60 ng/mL T3 as a positive control, or with a drug candidate dissolved in DMSO. Medium was changed every other day. On D16 doxycycline was removed from the medium. Cells were fixed on D21 and analyzed via immunocytochemistry.
Immunocytochemistry. Cells were initially fixed with 4% PFA treatment for 20 min, RT. Following three washes with PBS cells were incubated with blocking solution containing 5% normal goat serum (NGS) and 5% FCS (fetal calf serum) in PBS for 30 min at RT to prevent unspecific binding of the antibodies. To detect intracellular antigens cells were permeabilized by adding 0.5% Triton X-100 to the Blocking-solution. Cells treated with Triton X-100 were washed three times with PBS each time for 5 min at RT. Primary antibodies (rat anti-MBP,1:50, Abcam, AB7349) were applied overnight, 4° C., in blocking solution. The next day cells were washed 3 times with PBS at RT, and afterwards incubated with secondary antibodies (AF488 Alexa Fluor anti-rat (goat), 1:500, Jackson/Dianova, #112-545-167) diluted in PBS for 1 h at RT. Secondary antibodies were subsequently removed by washing 3 times with PBS. Afterwards PBS containing a Dapi staining for nuclei was added for 5 minutes and afterwards washed off with PBS. Cells were kept at 4° C. until imaging.
Imaging and evaluation. From each condition (triplicates) 20-30 pictures were taken randomly chosen by the Dapi-signal. Cell numbers were determined by using an ImageJ Macro to count the nuclei whereas MBP positive cells were subsequently counted manually in black and white images.
The effect on oligodendroglial differentiation of 32 compounds (“Front runners”) was tested. Induced pluripotent stem cells in which the transcription factors SOX10, OLIG2, NKX6.2 were inserted in a doxycycline inducible manner into a human safe harbor were differentiated into neural stem cells. Differentiation into oligodendrocytes was induced by addition of doxycycline. Cells were cultured either in a minimal medium (MM) (negative control) or in MM with the different compounds at a concentration of 1 μM. Addition of T3 to the minimal medium served as a positive control.

[3] = system: primary murine spinal cord culture; experiment: Myelinating cell cultures from primary murine spinal cord; format: cell-based, mouse; details: 1 μM
Method: Single cell suspensions are prepared from spinal cord of mouse embryos (E13) (adapted from Thomson, 2008) and 1.5×10^5 cells/well were plated into 96 well plates. Over time, these cultures mature and form axons, which later myelinate. Using spinal cord tissue facilitates the quantification of mature MBP+ oligodendrocytes and newly formed myelin by in-house high-content imaging system (Operetta High Content Imaging System, Perkin Elmer) with a 20× lens. From each well, 25 fields in a 5×5 matrix were scanned. Thirty-two “Front Runners” compounds were tested in replicates of five at 1 μM/DMSO, while T3, benzotropine and clemastine were used as positive controls, DMSO as negative/solvent control. Two experimental paradigms were applied: “Early treatment”: exposure to experimental agent from DIV7 to DIV14; “Late treatment”: exposure to experimental agent from DIV14-DIV21. On DIV21, cultures were fixed and stained (myelin: MBP, axons: NF200; nuclei: Hoechst). Imaging data were analysed using CellProfiler and in-house generated analysis pipeline.
Thirty-two “Front Runners” compounds were tested in replicates of five at 1 μM/DMSO, while T3, benztropine and clemastine were used as positive controls, DMSO as negative/solvent control. Two experimental paradigms were applied: “Early treatment”: exposure to experimental agent from DIV7 to DIV14; “Late treatment”: exposure to experimental agent from DIV14-DIV21. […] In “Late treatment” paradigm in myelin area evaluation were identified Vanoxerine, Roxadustat, Tamibarotene, Drinabant, Progesterone, Saracatinib. In quantification of myelinated axons were identified Vanoxerine, Drinabant, Roxadustat.

rat primary OPC cultures = experiment: Differentiation of rat primary OPC into MBP+ OLs; format: cell-based; details: 96 h, 4 days of differentiation, read-out: MBP+ differentiation (MBP+/SOX10+ OLs plus compounds / plus basal medium)
Method: Secondary validation on primary rat OPC differentiation. Re-validation of the best performing compounds promoting OPC differentiation (fold change >1.5) was performed on primary rat OPC cultures in 96 well-plate run in triplicates by triple immunolabeling for CNPase, MBP and SOX10 as a readout. Compounds at […] were added for 4 days of differentiation and then cell cultures were imaged with ArrayScanXTI platform, number of MBP+OLs were quantified by semi-automated software. Basal medium served as a negative control, 9 cis-RA ([…]) was a positive control.
Re-validation of the 49 compounds selected from the short list (160 compounds) using rat primary OPC cultures (compounds tested in triplicates in 3 independent experiments. The secondary validation screen of these compounds performed on rat primary OPC cultures selected 17 best lead compounds with a pro-differentiation activity (MBP+/SOX10+OLs plus compounds/MBP+SOX10+ plus basal medium fold increase) induced a strong differentiation into MBP+OLs (fold increase >1.6). Results are shown in FIG. 7.

SMILES: CCNC(=O)C1CC(F)(c2ccc(CN3CCCC3)c(F)c2)C1 (stereo not drawn) [PF-03654746]
- CG4 differentiation compared with 9cis-RA positive control [1]: promoting differentiation significantly higher than 9cis-RA positive control
- differentiation into MBP+ oligodendrocytes [2]: promote significantly (p<0.05) the differentiation into MBP+ oligodendrocytes
- myelin area ([3]; Early treatment DIV7 to DIV14): identified

SMILES: Cc1c(F)cccc1NC(=O)Nc1ccc(Cl)c(S(=O)(=O)[C@H]2CCCNC2)c1O [Danirixin]
- CG4 differentiation compared with 9cis-RA positive control [1]: promoting differentiation significantly higher than 9cis-RA positive control
- differentiation into MBP+ oligodendrocytes [2]: promote significantly (p<0.05) the differentiation into MBP+ oligodendrocytes

SMILES: CS(=O)(=O)N(c1cc(F)cc(F)c1)C1CN(C(c2ccc(Cl)cc2)c2ccc(Cl)cc2)C1 [Drinabant]
- CG4 differentiation compared with 9cis-RA positive control [1]: promoting differentiation significantly higher than 9cis-RA positive control
- differentiation into MBP+ oligodendrocytes [2]: promote significantly the differentiation into MBP+ oligodendrocytes
- differentiation into MBP+ oligodendrocytes ([2]; listed as Drinibant): promote significantly (p<0.05) the differentiation into MBP+ oligodendrocytes
- myelin area ([3]; Early treatment DIV7 to DIV14): identified
- myelin area ([3]; Late treatment DIV14-DIV21): identified
- quantification of myelinated axons ([3]; Late treatment DIV14-DIV21): identified

SMILES: CNC(=O)c1cc(COc2nnc(Nc3ccc(Cl)cc3)c3ccoc23)ccn1 [Telatinib]
- CG4 differentiation compared with 9cis-RA positive control [1]: promoting differentiation significantly higher than 9cis-RA positive control
- fold induction at 1 µM (rat primary OPC cultures): > 1.6
- differentiation into MBP+ oligodendrocytes [2]: promote significantly (p<0.05) the differentiation into MBP+ oligodendrocytes

SMILES: CCC/N=C1\S/C(=C\c2ccc(OC[C@H](O)CO)c(Cl)c2)C(=O)N1c1ccccc1C [Ponesimod]
- CG4 differentiation compared with 9cis-RA positive control [1]: promoting differentiation significantly higher than 9cis-RA positive control
- differentiation into MBP+ oligodendrocytes [2]: promote significantly (p<0.05) the differentiation into MBP+ oligodendrocytes
- myelin area ([3]; Early treatment DIV7 to DIV14): identified

SMILES: Fc1ccc(C(OCCN2CCN(CCCc3ccccc3)CC2)c2ccc(F)cc2)cc1 [Vanoxerine]
- CG4 differentiation compared with 9cis-RA positive control [1]: promoting differentiation significantly higher than 9cis-RA positive control
- myelin area ([3]; Early treatment DIV7 to DIV14): identified
- quantification of myelinated axons ([3]; Early treatment DIV7 to DIV14): identified
- myelin area ([3]; Late treatment DIV14-DIV21): identified
- quantification of myelinated axons ([3]; Late treatment DIV14-DIV21): identified

SMILES: Cc1ccc(C(=O)Nc2ccc(Oc3cc4cnn(C)c4cc3-c3cn[nH]c3)c(F)c2)c(=O)n1-c1ccc(F)cc1 [Merestinib]
- CG4 differentiation compared with 9cis-RA positive control [1]: promoting differentiation significantly higher than 9cis-RA positive control
- differentiation into MBP+ oligodendrocytes [2]: promote significantly (p<0.05) the differentiation into MBP+ oligodendrocytes
